Assay results as given in ChEMBL document CHEMBL1201862, “PubChem BioAssay data set” (2004).
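Protocol summary: plate cells (96-well), add compound at 5 concentrations, incubate 48 h, interpolate endpoints linearly. GI50 = concentration required for 50% inhibition of growth.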 Activity calls are given as the source filed them. Rule as the data show it: active = GI50 up to about 1.1 µM and inactive = higher.

Legend:
Assay in all cases: NCI-60 cell line screen, 48 h
HOP-62 = system: HOP-62
LOX IMVI = system: LOX IMVI
NCI-H23 = system: NCI-H23
Malme-3M = system: Malme-3M
SF-539 = system: SF-539
SNB-78 = system: SNB-78
XF498 = system: XF498
RPMI-8226 = system: RPMI-8226
SF-295 = system: SF-295
HCC 2998 = system: HCC 2998
HOP-92 = system: HOP-92
TK-10 = system: TK-10
UO-31 = system: UO-31
SNB-75 = system: SNB-75
RXF 631 = system: RXF 631
SF-268 = system: SF-268
A549 = system: A549
SR = system: SR
LXFL 529 = system: LXFL 529
HOP-18 = system: HOP-18
SK-OV-3 = system: SK-OV-3
HT-29 = system: HT-29
SN12C = system: SN12C
IGROV-1 = system: IGROV-1
786-0 = system: 786-0
NCI-H460 = system: NCI-H460
COLO 205 = system: COLO 205
HCT-15 = system: HCT-15
OVCAR-8 = system: OVCAR-8
HCT-116 = system: HCT-116
SNB-19 = system: SNB-19
EKVX = system: EKVX
OVCAR-5 = system: OVCAR-5
U-251 = system: U-251
UACC-257 = system: UACC-257
OVCAR-3 = system: OVCAR-3
SK-MEL-28 = system: SK-MEL-28
SW-620 = system: SW-620
DLD-1 = system: DLD-1
HL-60 = system: HL-60
SK-MEL-2 = system: SK-MEL-2
ACHN = system: ACHN
UACC-62 = system: UACC-62
DMS-273 = system: DMS-273
MOLT-4 = system: MOLT-4
NCI-H226 = system: NCI-H226
RXF 393 = system: RXF 393
CCRF-CEM = system: CCRF-CEM
M19-MEL = system: M19-MEL
A498 = system: A498
K562 = system: K562
KM-20L2 = system: KM-20L2
NCI-H522 = system: NCI-H522
KM12 = system: KM12
M14 = system: M14
OVCAR-4 = system: OVCAR-4
SK-MEL-5 = system: SK-MEL-5
DMS-114 = system: DMS-114
CAKI-1 = system: CAKI-1

## CC(=O)C1(O)CCC2(O)C3(O)CC=C4CC(O)CCC4(C)C3CC(OC(=O)c3ccc(O)cc3)C12C.COC1CC(OC2C(C)OC(OC3C(C)OC(OC4CCC5(C)C(=CCC6(O)C5CC(OC(=O)c5ccc(O)cc5)C5(C)C(O)(C(C)=O)CCC65O)C4)CC3OC)CC2OC)OC(C)C1O (stereo not drawn)
HOP-62
  GI50: 31.6 µM (inactive)
LOX IMVI
  GI50: 20.5 µM (inactive)
NCI-H23
  GI50: 28.9 µM (inactive)
Malme-3M
  GI50: 25.1 µM (inactive)
SF-539
  GI50: 24.5 µM (inactive)
SNB-78
  GI50: 20.6 µM (inactive)
XF498
  GI50: 2.03 µM (inactive)
RPMI-8226
  GI50: 27.5 µM (inactive)
SF-295
  GI50: 36 µM (inactive)
HCC 2998
  GI50: 26.9 µM (inactive)
HOP-92
  GI50: 21.1 µM (inactive)
TK-10
  GI50: 60.8 µM (inactive)
UO-31
  GI50: 18.3 µM (inactive)
SNB-75
  GI50: 76.4 µM (inactive)
RXF 631
  GI50: 76 µM (inactive)
SF-268
  GI50: 30.6 µM (inactive)
A549
  GI50: 30.5 µM (inactive)
SR
  GI50: 25.8 µM (inactive)
LXFL 529
  GI50: 24.9 µM (inactive)
HOP-18
  GI50: 38.7 µM (inactive)
SK-OV-3
  GI50: 36.7 µM (inactive)
HT-29
  GI50: 31.4 µM (inactive)
SN12C
  GI50: 31.3 µM (inactive)
IGROV-1
  GI50: 34.2 µM (inactive)
786-0
  GI50: 23.7 µM (inactive)
NCI-H460
  GI50: 34.2 µM (inactive)
COLO 205
  GI50: 26.9 µM (inactive)
HCT-15
  GI50: 33.6 µM
OVCAR-8
  GI50: 29.9 µM (inactive)
HCT-116
  GI50: 10 µM (inactive)
SNB-19
  GI50: 33.6 µM (inactive)
EKVX
  GI50: 35.4 µM (inactive)
OVCAR-5
  GI50: 87.5 µM (inactive)
U-251
  GI50: 22.5 µM (inactive)
UACC-257
  GI50: 23.4 µM (inactive)
OVCAR-3
  GI50: 20.3 µM (inactive)
SK-MEL-28
  GI50: 29 µM (inactive)
SW-620
  GI50: 42.1 µM (inactive)
DLD-1
  GI50: 36.6 µM (inactive)
HL-60
  GI50: 20.7 µM (inactive)
SK-MEL-2
  GI50: 20.4 µM (inactive)
ACHN
  GI50: 30.1 µM (inactive)
UACC-62
  GI50: 23.4 µM (inactive)
DMS-273
  GI50: 36.2 µM (inactive)
MOLT-4
  GI50: 30.5 µM (inactive)
NCI-H226
  GI50: 34.4 µM (inactive)
RXF 393
  GI50: 44.4 µM (inactive)
CCRF-CEM
  GI50: 32.4 µM (inactive)
M19-MEL
  GI50: 35.5 µM (inactive)

## [O-][n+]1c2cc(CN3CCOCC3)c(CN3CCOCC3)cc2[n+]([O-])c2c(O)cccc21
HOP-62
  GI50: 3.75 µM (inactive)
LOX IMVI
  GI50: 4.02 µM (inactive)
NCI-H23
  GI50: 2.37 µM (inactive)
Malme-3M
  GI50: 8.73 µM (inactive)
SF-539
  GI50: 1.08 µM (active)
SNB-78
  GI50: 3.18 µM (inactive)
XF498
  GI50: 1.83 µM (inactive)
RPMI-8226
  GI50: 3.32 µM (inactive)
SF-295
  GI50: 0.478 µM (active)
HOP-92
  GI50: 2 µM (inactive)
TK-10
  GI50: > 20.4 µM (inactive)
UO-31
  GI50: 3.72 µM (inactive)
SNB-75
  GI50: 3.46 µM (inactive)
RXF 631
  GI50: 16.1 µM (inactive)
SF-268
  GI50: 1.05 µM (active)
SR
  GI50: 0.193 µM (active)
LXFL 529
  GI50: 3.1 µM (inactive)
HOP-18
  GI50: 3.55 µM (inactive)
SK-OV-3
  GI50: 4.13 µM (inactive)
HT-29
  GI50: 3.91 µM (inactive)
SN12C
  GI50: 2.87 µM (inactive)
IGROV-1
  GI50: 5 µM (inactive)
A498
  GI50: 11 µM (inactive)
786-0
  GI50: 1.41 µM (inactive)
NCI-H460
  GI50: 0.993 µM (active)
COLO 205
  GI50: 5 µM (inactive)
K562
  GI50: 2.61 µM (inactive)
HCT-15
  GI50: 3.44 µM
OVCAR-8
  GI50: 2.48 µM (inactive)
KM-20L2
  GI50: 5.93 µM (inactive)
HCT-116
  GI50: 1.81 µM (inactive)
SNB-19
  GI50: 9.44 µM (inactive)
NCI-H522
  GI50: 1.88 µM (inactive)
KM12
  GI50: 4.4 µM (inactive)
EKVX
  GI50: 6.53 µM (inactive)
M14
  GI50: 3.64 µM (inactive)
OVCAR-5
  GI50: 4.38 µM (inactive)
U-251
  GI50: 3.25 µM (inactive)
UACC-257
  GI50: 6.24 µM (inactive)
OVCAR-3
  GI50: 5.15 µM (inactive)
SK-MEL-28
  GI50: 14 µM (inactive)
SW-620
  GI50: 2.94 µM (inactive)
DLD-1
  GI50: 2.12 µM (inactive)
HL-60
  GI50: 0.807 µM (active)
SK-MEL-2
  GI50: 5.56 µM (inactive)
ACHN
  GI50: 4.07 µM (inactive)
UACC-62
  GI50: 4.21 µM (inactive)
DMS-273
  GI50: 3.44 µM (inactive)
MOLT-4
  GI50: 0.627 µM (active)
NCI-H226
  GI50: 8.65 µM (inactive)
OVCAR-4
  GI50: 4.29 µM (inactive)
RXF 393
  GI50: 0.968 µM (active)
CCRF-CEM
  GI50: 0.427 µM (active)
M19-MEL
  GI50: 2.9 µM (inactive)

## CC(C)C1COC(c2ccc3ccccc3c2-c2c(O[Si](C)(C)C(C)(C)C)ccc3ccccc23)=N1 (stereo not drawn)
HOP-62
  GI50: 18.8 µM (inactive)
LOX IMVI
  GI50: 19.7 µM (inactive)
NCI-H23
  GI50: 16.3 µM (inactive)
Malme-3M
  GI50: 18.4 µM (inactive)
SF-539
  GI50: 16.9 µM (inactive)
SNB-78
  GI50: 6.59 µM (inactive)
XF498
  GI50: 14.5 µM (inactive)
RPMI-8226
  GI50: 14.7 µM (inactive)
SF-295
  GI50: 17.2 µM (inactive)
HCC 2998
  GI50: 15.1 µM (inactive)
HOP-92
  GI50: 13.6 µM (inactive)
TK-10
  GI50: 17.9 µM (inactive)
UO-31
  GI50: 14.8 µM (inactive)
SNB-75
  GI50: 17.9 µM (inactive)
RXF 631
  GI50: 14.9 µM (inactive)
SF-268
  GI50: 17.9 µM (inactive)
A549
  GI50: 17.4 µM (inactive)
LXFL 529
  GI50: 15.4 µM (inactive)
SK-OV-3
  GI50: 19.8 µM (inactive)
HT-29
  GI50: 15.5 µM (inactive)
SN12C
  GI50: 16.6 µM (inactive)
IGROV-1
  GI50: 20.2 µM (inactive)
A498
  GI50: 19.2 µM (inactive)
786-0
  GI50: 18.4 µM (inactive)
NCI-H460
  GI50: 19.6 µM (inactive)
COLO 205
  GI50: 18.4 µM (inactive)
K562
  GI50: 16.6 µM (inactive)
SK-MEL-5
  GI50: 16.7 µM (inactive)
HCT-15
  GI50: 22.3 µM
OVCAR-8
  GI50: 18 µM (inactive)
KM-20L2
  GI50: 19.5 µM (inactive)
DMS-114
  GI50: 15.6 µM (inactive)
SNB-19
  GI50: 14.9 µM (inactive)
NCI-H522
  GI50: 15.2 µM (inactive)
KM12
  GI50: 17.9 µM (inactive)
EKVX
  GI50: 19.1 µM (inactive)
CAKI-1
  GI50: 21.9 µM (inactive)
M14
  GI50: 15.8 µM (inactive)
OVCAR-5
  GI50: 18.4 µM (inactive)
UACC-257
  GI50: 18.2 µM (inactive)
OVCAR-3
  GI50: 17.3 µM (inactive)
SK-MEL-28
  GI50: 19.1 µM (inactive)
SW-620
  GI50: 18.5 µM (inactive)
DLD-1
  GI50: 17.1 µM (inactive)
HL-60
  GI50: 16.1 µM (inactive)
SK-MEL-2
  GI50: 16.1 µM (inactive)
ACHN
  GI50: 18.9 µM (inactive)
UACC-62
  GI50: 15.8 µM (inactive)
DMS-273
  GI50: 21.4 µM (inactive)
MOLT-4
  GI50: 15.6 µM (inactive)
NCI-H226
  GI50: 11.8 µM (inactive)
OVCAR-4
  GI50: 14.6 µM (inactive)
RXF 393
  GI50: 18.8 µM (inactive)
CCRF-CEM
  GI50: 18.1 µM (inactive)
M19-MEL
  GI50: 18.8 µM (inactive)
